Laboratory results reported in US7807777B2, “Marker peptide for alzheimer's disease” (Immuno-Biological Laboratories Co., Ltd., priority 2003, dated 2010).

Legend:
presenilin [1] = test: Western blotting of cell lysates of HEK293 cells expressing APP695, Alcα, Alcβ or Alcγ, with or without presenilin inhibitor; type: cell-based; conditions: 1 μl of 1 mM DMSO solution per 1 ml culture medium, 24 hrs
Description: A DNA encoding Alcα, Alcβ, Alcγ, or APP695 (an isoform of human APP consisting of 695 amino acids) was inserted into a mammalian expression vector pcDNA3.1 (Invitrogen).
(§1) HEK293 cells were seeded in DMEM (D5796: Sigma) containing 10% fetal bovine serum in a 6-well culture plate (area of base: 10 cm^2) and transfected with the expression vector prepared above by using a transfection reagent (LipofectAMINE 2000: Invitrogen). As a control, HEK293 cells were similarly transfected with an empty pcDNA3.1 vector.
One microliter of a DMSO solution containing 1 mM of a presenilin inhibitor L-685,458 (Calbiochem) was added to 1 ml of the culture medium. After the incubation for 24 hrs, a sample of the culture medium was taken. As a control, an equal quantity of DMSO instead of the L-685,458 solution was added to the culture medium and similarly incubated. Then, a sample of the culture medium was taken. The sample of the culture medium was added to 1 ml of HBST buffer (10 mM HEPES of pH 7.4, 150 mM sodium chloride, 0.5% Triton X-100, 5 μg/ml chymostatin, 5 μg/ml leupeptin, and […]) for extracting proteins of the cells. The solubilized cells were centrifuged (12000×g, 10 min) and supernatant was collected to recover the solubilized components. The solubilized components (7.5 μl) were added to 7.5 μl of a sample-buffer mixture (a mixture of 5 μl of 5×SDS sample buffer and 2.5 μl of 8 M urea solution) and boiled for 5 min. This sample was subjected to SDS-PAGE of 8/15% 2-stage gel and then the proteins were transferred on a nitrocellulose membrane for conducting Western blotting. The SDS-PAGE was performed according to the general method of Laemmli. As the primary antibody, an anti-APP cytoplasmic domain antibody (G369, 1/2000 dilution), anti-Alcα antibody (UT83, 0.3 μg/ml), anti-Alcβ antibody (UT99, 0.5 μg/ml), and anti-Alcγ antibody (UT105, 1/500 dilution) were used. The detection was performed by using an ECL kit (Pharmacia). The UT99 and UT105 are antibodies recognizing the C-terminals of Alcβ and Alcγ, respectively. FIG. 6 and FIG. 7A to C show the results.

presenilin [2] = test: Incubation of membrane fragments of HEK293 cells expressing Alcα, Alcβ or Alcγ, Western blotting with anti-Alc antibodies; type: biochemical; conditions: Alcβ and Alcγ, final concentration 1 μM, 37° C. for 1 or 3 hrs, FIG. 8A to C
Description: DNAs encoding Alcα, Alcβ, or Alcγ were each inserted into a mammalian expression vector pcDNA3.1 (Invitrogen).
as §1, with “DMEM” for “DMEM (D5796: Sigma)”, “a 10-cm” for “a 6-well”, “base: 60” for “base: 10”, “were” for “were similarly”
After the incubation for 24 hrs, the culture medium was removed and the cells were washed with ice-cooled PBS. Then, 10 ml of PBS was added again. The cells were detached from the plate by pipetting and transferred into a 15 ml Falcon tube. The cells were collected by centrifugation (1500 rpm, 10 min, low-speed refrigerated centrifuge: Beckmann) as a pellet of the cells. One milliliter of buffer D (0.25 M sucrose, 10 mM triethanolamine-acetate of pH 7.8, 5 μg/ml chymostatin, 5 μg/ml leupeptin, and 5 μg/ml pepstatin) was added to the pellet of the cells, and the cells were broken by 12 passages through a 27 G needle. Then, the broken cells were centrifuged with a TOMY TMA-6 rotor at 3000 rpm (1000×g) for 10 min at 4° C. to remove unbroken cells and nuclei and to obtain a nucleus-removed cell homogenate. […]

SMILES: CC(C)C[C@H](NC(=O)[C@H](Cc1ccccc1)C[C@@H](O)[C@H](Cc1ccccc1)NC(=O)OC(C)(C)C)C(=O)N[C@@H](Cc1ccccc1)C(N)=O [L-685,458]
- C-terminal fragment (CTFα) of APP in the cell lysate (presenilin [1]; HEK293 cells expressing APP695, FIG. 6): a large amount of the C-terminal fragment (CTFα) was detected in the cell lysate only when the presenilin inhibitor (L-685,458) was added
- C-terminal fragment (CTF1) of Alcα in the cell lysate (presenilin [1]; HEK293 cells expressing Alcα, FIG. 7A): C-terminal fragments (CTF1) were detected only when the presenilin inhibitor was added
- C-terminal fragment of Alcβ in the cell lysate (presenilin [1]; HEK293 cells expressing Alcβ, FIG. 7B): detected even when the presenilin inhibitor was not added
- C-terminal fragment (CTF1) of Alcγ in the cell lysate (presenilin [1]; HEK293 cells expressing Alcγ, FIG. 7C): C-terminal fragments (CTF1) were detected only when the presenilin inhibitor was added
- fragments (such as Alcα-ICD) containing the C-terminal of each Alc (presenilin [2]): such fragments were not detected
